{
  "source": "ChEMBL document CHEMBL2057208",
  "about": "“Benzoylbenzimidazole-based selective inhibitors targeting Cryptosporidium parvum and Toxoplasma gondii calcium-dependent protein kinase-1” (Bioorg Med Chem Lett, 2012)",
  "key": {"[1]": {"target": "T1, Calmodulin-domain protein kinase 1 (Toxoplasma gondii, UniProt Q9BJF5)", "T1 sequence (Q9BJF5 whole entry)": "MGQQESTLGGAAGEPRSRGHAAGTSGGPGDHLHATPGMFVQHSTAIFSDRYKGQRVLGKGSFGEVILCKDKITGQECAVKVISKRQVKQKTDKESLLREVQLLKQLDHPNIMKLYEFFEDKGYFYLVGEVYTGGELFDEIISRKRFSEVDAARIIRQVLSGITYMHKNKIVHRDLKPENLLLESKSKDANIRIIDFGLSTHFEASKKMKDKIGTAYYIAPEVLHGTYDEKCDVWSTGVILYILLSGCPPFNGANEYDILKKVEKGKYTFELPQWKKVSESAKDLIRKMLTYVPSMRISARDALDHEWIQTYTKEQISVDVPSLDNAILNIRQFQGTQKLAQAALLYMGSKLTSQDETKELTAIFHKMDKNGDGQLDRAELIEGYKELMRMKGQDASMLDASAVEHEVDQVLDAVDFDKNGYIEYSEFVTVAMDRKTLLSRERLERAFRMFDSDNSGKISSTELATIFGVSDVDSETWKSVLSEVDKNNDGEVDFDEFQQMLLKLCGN", "experiment": "Inhibition of Toxoplasma gondii CDPK1"}, "cells": {"experiment": "cells", "conditions": "Homo sapiens, CRL8155", "description": "Cytotoxicity against human CRL8155 cells after 48 to 72 hrs by Alamar blue assay"}, "[2]": {"target": "Tyrosine-protein kinase ABL1 (Homo sapiens, UniProt P00519)", "sequence (P00519 whole entry)": "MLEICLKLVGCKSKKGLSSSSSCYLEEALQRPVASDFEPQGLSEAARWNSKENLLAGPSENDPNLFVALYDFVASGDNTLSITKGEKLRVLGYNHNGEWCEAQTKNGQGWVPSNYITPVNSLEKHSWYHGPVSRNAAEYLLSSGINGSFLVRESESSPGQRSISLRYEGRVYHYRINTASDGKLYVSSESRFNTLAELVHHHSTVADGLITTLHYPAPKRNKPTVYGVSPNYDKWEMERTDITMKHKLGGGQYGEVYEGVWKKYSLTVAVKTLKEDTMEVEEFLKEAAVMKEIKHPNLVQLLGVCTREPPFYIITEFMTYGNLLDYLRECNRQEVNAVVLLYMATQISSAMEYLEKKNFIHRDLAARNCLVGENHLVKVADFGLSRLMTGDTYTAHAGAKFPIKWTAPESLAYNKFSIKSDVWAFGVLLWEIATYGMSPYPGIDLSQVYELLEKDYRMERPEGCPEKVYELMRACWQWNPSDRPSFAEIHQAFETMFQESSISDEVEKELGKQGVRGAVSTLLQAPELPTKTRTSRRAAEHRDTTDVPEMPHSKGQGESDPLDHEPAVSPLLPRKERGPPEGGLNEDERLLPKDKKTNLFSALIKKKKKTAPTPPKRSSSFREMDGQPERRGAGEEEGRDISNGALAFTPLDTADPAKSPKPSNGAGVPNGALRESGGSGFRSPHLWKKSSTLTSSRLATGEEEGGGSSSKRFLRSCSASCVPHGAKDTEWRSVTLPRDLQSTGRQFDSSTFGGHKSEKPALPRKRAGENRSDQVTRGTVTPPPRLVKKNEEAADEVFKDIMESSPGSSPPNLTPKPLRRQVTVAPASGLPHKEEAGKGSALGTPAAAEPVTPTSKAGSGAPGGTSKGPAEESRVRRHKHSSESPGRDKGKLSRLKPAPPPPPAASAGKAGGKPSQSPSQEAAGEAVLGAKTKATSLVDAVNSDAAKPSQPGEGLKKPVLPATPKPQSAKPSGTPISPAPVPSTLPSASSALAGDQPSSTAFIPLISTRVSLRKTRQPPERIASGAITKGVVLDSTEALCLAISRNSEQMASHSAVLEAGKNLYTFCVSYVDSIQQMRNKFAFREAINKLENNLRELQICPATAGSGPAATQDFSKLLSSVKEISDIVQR", "experiment": "Inhibition of human ABL"}, "Toxoplasma gondii": {"test_system": "Toxoplasma gondii", "experiment": "Antiparasitic activity against Toxoplasma gondii up to 1 uM", "format": "functional, organism-based"}, "HL-60": {"test_system": "HL-60", "experiment": "cells", "conditions": "Homo sapiens", "description": "Cytotoxicity against human HL60 cells after 48 to 72 hrs by Alamar blue assay"}, "Cryptosporidium parvum": {"test_system": "Cryptosporidium parvum", "experiment": "Antiparasitic activity against Cryptosporidium parvum up to 1 uM", "format": "functional, organism-based"}, "[3]": {"experiment": "Inhibition of Cryptosporidium parvum CDPK1"}, "[4]": {"target": "Proto-oncogene tyrosine-protein kinase Src (Homo sapiens, UniProt P12931)", "sequence (P12931 2-536 limits assumed)": "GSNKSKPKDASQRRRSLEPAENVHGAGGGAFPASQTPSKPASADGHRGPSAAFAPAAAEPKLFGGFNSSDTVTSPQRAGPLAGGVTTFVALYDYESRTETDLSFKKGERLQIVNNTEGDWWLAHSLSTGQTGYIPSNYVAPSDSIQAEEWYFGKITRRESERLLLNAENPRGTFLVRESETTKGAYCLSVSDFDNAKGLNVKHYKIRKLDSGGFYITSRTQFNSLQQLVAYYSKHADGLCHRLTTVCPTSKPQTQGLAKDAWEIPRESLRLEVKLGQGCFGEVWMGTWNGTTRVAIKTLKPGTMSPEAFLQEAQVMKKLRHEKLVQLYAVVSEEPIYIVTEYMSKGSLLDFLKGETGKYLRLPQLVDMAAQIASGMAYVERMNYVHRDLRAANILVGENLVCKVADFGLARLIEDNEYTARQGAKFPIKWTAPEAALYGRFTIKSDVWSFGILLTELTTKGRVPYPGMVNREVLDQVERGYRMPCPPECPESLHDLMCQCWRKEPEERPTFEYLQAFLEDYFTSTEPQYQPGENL", "experiment": "Inhibition of human SRC"}},
  "note": "The source made the active and inactive calls. The rule behind the calls is not given here.",
  "data": [
    {"molecule": "CN1CCN(CCn2c(N)nc3ccc(C(=O)c4ccccc4)cc32)CC1", "values": [
      {"measurement": "IC50", "setting": "[1]", "result": 0.043, "unit": "µM"},
      {"measurement": "EC50", "setting": "cells", "result": "> 30", "unit": "µM"},
      {"measurement": "IC50", "setting": "[2]", "result": "> 10", "unit": "µM"},
      {"measurement": "Activity", "setting": "Toxoplasma gondii", "result": "inactive"},
      {"measurement": "EC50", "setting": "HL-60", "result": "> 30", "unit": "µM"},
      {"measurement": "Activity", "setting": "Cryptosporidium parvum", "result": "inactive"},
      {"measurement": "IC50", "setting": "[3]", "result": 0.036, "unit": "µM"},
      {"measurement": "IC50", "setting": "[4]", "result": "> 10", "unit": "µM"}
    ]}
  ]
}
